Source: article PMC12775434, “Ultra-large virtual screening unveils potent agonists of the neuromodulatory orphan receptor GPR139” (Nature Communications, 2025)
Several values for one entry are separate records, joined by “and”; a condition that tells them apart may be missing. Equal entries are not always repeated. Where two headings read alike, the source gives them in different places. Values belong to the molecule of their own block, whether it stands above or below them.

Target: T1, GPR139 (Homo sapiens, UniProt Q6DWJ6)
T1 sequence (Q6DWJ6 1-353): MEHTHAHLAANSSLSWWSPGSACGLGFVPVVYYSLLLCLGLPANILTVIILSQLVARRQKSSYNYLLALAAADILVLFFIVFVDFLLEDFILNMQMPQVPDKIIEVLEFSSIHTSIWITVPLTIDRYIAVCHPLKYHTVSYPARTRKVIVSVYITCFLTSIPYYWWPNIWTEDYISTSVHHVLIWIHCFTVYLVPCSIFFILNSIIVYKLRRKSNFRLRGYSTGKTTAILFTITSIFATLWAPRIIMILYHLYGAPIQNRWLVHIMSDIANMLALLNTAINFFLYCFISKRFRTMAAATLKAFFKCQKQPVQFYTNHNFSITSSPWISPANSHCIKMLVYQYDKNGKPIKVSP
Experiment: Inositol monophosphate (IP1) accumulation assay, GPR139-CHOk1
Assay type: cell-based
Experimental: Primary screening and pharmacological characterization of compounds were performed using a CHO-K1 cell line that stably expresses human GPR139 (GPR139-CHOk1). The GPR139-CHOk1 cell line was kindly provided by H. Lundbeck A/S, Denmark[24]. GPR139-CHOk1 cells were grown in Ham’s F-12 Kaighn’s Modification Medium (ThermoFisher #21127030) supplemented with 10% dialyzed fetal bovine serum (US origin, ThermoFisher #26400044), 100 units/mL Penicillin-Streptomycin (ThermoFisher #15140122), and 1 mg/mL Geneticin (ThermoFisher #11811031). […] M1R-CHOk1 cells were purchased from The Missouri S&T cDNA Resource Center (#CEM100TN00). M1R-CHOk1 cells were grown in Ham’s F12 Medium (ThermoFisher #21765029) supplemented with 10% fetal bovine serum (Brazilian origin, ThermoFisher #10270106), 100 units/mL Penicillin-Streptomycin, and 0.25 mg/mL Geneticin. HEK293A cells transiently transfected with GPR139 were used for additional pharmacological assessment of signaling pathways activated by GPR139. HEK239A cells were generously provided by Dr. Asuka Inoue, Tohoku University, Japan. HEK293A cells were grown in Dulbecco’s Modified Eagle Medium (ThermoFisher #31966047) supplemented with 10% dialyzed fetal bovine serum and 100 units/mL Penicillin-Streptomycin. Cell lines were maintained at 37 °C in humidified incubator equilibrated with 5% CO2.
HTRF IP-One Gq kit (Cisbio #62IPAPEC) was used to detect the accumulation of inositol monophosphate (IP1) as described in the work by Shehata et al.[26]. GPR139-CHOk1 cells were dissociated and resuspended in HEPES buffer. 50,000 cells in 5 µL and 5 µL test compounds diluted from DMSO stocks (final DMSO concentration of maximally 0.3%) in HEPES buffer supplemented with 40 mM LiCl were mixed in each well of white 384-well OptiPlate (PerkinElmer #6007290). The cells were incubated for 1 h at 37 °C. Then, 10 µL detection reagent composed of 2.5% Eu3 + -anti-IP1 antibody and 2.5% IP1-d2 diluted in lysis buffer was added, and the cells were incubated for 1 h at room temperature before measurements. Measurements were performed on EnVision Multimode Plate Reader (PerkinElmer) using excitation light of 340 nm and emission light of 615 nm and 665 nm. The time resolved-fluorescence resonance energy transfer (TR-FRET) 665 nm/615 nm ratio, which is inversely proportional to the IP1 accumulation, was used to determine the IP1 response.
Pharmacological data and statistical analyses were performed in GraphPad Prism v9–10 (Graphpad Software Inc., San Diego, CA), which are also specifically described in the figure and table legends. The functional assay responses were normalized to buffer (0%) and Lundbeck Cmp 1a or JNJ-63533054 (100%), for Ca^2+ and IP1 experiments in the GPR139-CHOk1 stable cell line or Ca^2+, G protein activation, and arrestin-3 recruitment experiments in the HEK293A cells transiently transfected with GPR139, respectively. Data are from at least three independent experiments, unless stated otherwise. Concentration-response curves were fitted applying non-linear regression using the log (agonist) versus response model with variable slope. ANOVA was applied for comparing results and determining statistical significance. Comparison of responses to the reference was performed using one-way ANOVA with Dunnett’s multiple comparisons test at significance threshold of p < 0.05. Comparison of responses across assays and ligands was performed using two-way ANOVA with Tukey’s multiple comparisons test at a significance threshold of p < 0.05.

[1] = log [Compound] M -4.5, replicate experiments
[2] = log [Compound] M -5.0, replicate experiments
[3] = log [Compound] M -5.5, replicate experiments
[4] = log [Compound] M -6.0, replicate experiments
[5] = log [Compound] M -6.5, replicate experiments
[6] = log [Compound] M -7.0, replicate experiments
[7] = log [Compound] M -7.5, replicate experiments
[8] = log [Compound] M -8.0, replicate experiments

IP1 response (% of Cmp 1a) [3]: 13 % of Cmp 1a (2×) and 9 % of Cmp 1a
EC50 (read-out: pEC50 IP1 (converted)): 25100 nM
Structure (SMILES): CC(NC(=O)Cn1cncc(-c2ccccc2)c1=O)c1ccccc1 (stereo not shown) [Compound 5, C[C@@H](NC(=O)CN1C=NC=C(C=2C=CC=CC2)C1=O)C=3C=CC=CC3]
IP1 response (% of Cmp 1a) [1]: 68 % of Cmp 1a and 53 % of Cmp 1a and 56 % of Cmp 1a
IP1 response (% of Cmp 1a) [2]: 33 % of Cmp 1a and 17 % of Cmp 1a and 31 % of Cmp 1a
IP1 response (% of Cmp 1a) [4]: 7 % of Cmp 1a and -0.0762 % of Cmp 1a and 3.67 % of Cmp 1a
IP1 response (% of Cmp 1a) [5]: -1.74 % of Cmp 1a and -4 % of Cmp 1a and 0.455 % of Cmp 1a
IP1 response (% of Cmp 1a) [6]: 2.62 % of Cmp 1a and -1.59 % of Cmp 1a and -2.51 % of Cmp 1a
IP1 response (% of Cmp 1a) [7]: 0.67 % of Cmp 1a and -2.55 % of Cmp 1a and -3 % of Cmp 1a
IP1 response (% of Cmp 1a) [8]: -0.409 % of Cmp 1a and -3 % of Cmp 1a and -0.447 % of Cmp 1a

Emax (Supplementary Table 4, normalized to Lundbeck Cmp 1a, read-out: Emax (%), IP1 accumulation): 157 ± 16%
EC50 (Supplementary Table 4, read-out: pEC50, IP1 accumulation (converted)): 200 nM
Structure (SMILES): CC(NC(=O)CNC(=O)c1cccc(Cl)c1)c1ccccc1 (stereo not shown) [JNJ-63533054, reference compound]
IP1 response (% of Cmp 1a) [1]: 132 % of Cmp 1a and 117 % of Cmp 1a and 179 % of Cmp 1a and 200 % of Cmp 1a
IP1 response (% of Cmp 1a) [2]: 149 % of Cmp 1a and 120 % of Cmp 1a and 161 % of Cmp 1a and 172 % of Cmp 1a
IP1 response (% of Cmp 1a) [3]: 112 % of Cmp 1a and 93 % of Cmp 1a and 135 % of Cmp 1a and 165 % of Cmp 1a
IP1 response (% of Cmp 1a) [4]: 129 % of Cmp 1a and 86 % of Cmp 1a and 138 % of Cmp 1a and 168 % of Cmp 1a
IP1 response (% of Cmp 1a) [5]: 93 % of Cmp 1a (2×) and 74 % of Cmp 1a and 97 % of Cmp 1a
IP1 response (% of Cmp 1a) [6]: 56 % of Cmp 1a and 47 % of Cmp 1a and 72 % of Cmp 1a and 84 % of Cmp 1a
IP1 response (% of Cmp 1a) [7]: 40 % of Cmp 1a and 23 % of Cmp 1a and 36 % of Cmp 1a and 37 % of Cmp 1a
IP1 response (% of Cmp 1a) [8]: 24 % of Cmp 1a and 9 % of Cmp 1a and 8 % of Cmp 1a and 2 % of Cmp 1a

Structure (SMILES): COc1cc(OC)cc(C(=O)NNC(=O)Nc2cccc3ccccc23)c1 [Lundbeck Cmp 1a, reference compound]
EC50 (Supplementary Table 2, mean ± SEM, read-out: pEC50 IP1 (converted)): 501 nM
IP1 response (% of Cmp 1a) [1]: 68 % of Cmp 1a and 118 % of Cmp 1a and 94 % of Cmp 1a and 117 % of Cmp 1a and 98 % of Cmp 1a and 86 % of Cmp 1a and 109 % of Cmp 1a
IP1 response (% of Cmp 1a) [2]: 78 % of Cmp 1a and 115 % of Cmp 1a and 96 % of Cmp 1a and 112 % of Cmp 1a and 133 % of Cmp 1a and 94 % of Cmp 1a and 86 % of Cmp 1a and 118 % of Cmp 1a
IP1 response (% of Cmp 1a) [3]: 88 % of Cmp 1a and 100 % of Cmp 1a and 81 % of Cmp 1a and 120 % of Cmp 1a and 61 % of Cmp 1a and 70 % of Cmp 1a and 104 % of Cmp 1a
IP1 response (% of Cmp 1a) [4]: 58 % of Cmp 1a and 80 % of Cmp 1a and 57 % of Cmp 1a and 63 % of Cmp 1a and 85 % of Cmp 1a and 49 % of Cmp 1a and 68 % of Cmp 1a and 66 % of Cmp 1a
IP1 response (% of Cmp 1a) [5]: 29 % of Cmp 1a and 32 % of Cmp 1a and 26 % of Cmp 1a and 50 % of Cmp 1a and 44 % of Cmp 1a and 31 % of Cmp 1a and 21 % of Cmp 1a
IP1 response (% of Cmp 1a) [6]: 7.48 % of Cmp 1a and 13 % of Cmp 1a and 2.79 % of Cmp 1a and 11 % of Cmp 1a and 21 % of Cmp 1a and 9 % of Cmp 1a and 3.75 % of Cmp 1a and 17 % of Cmp 1a
IP1 response (% of Cmp 1a) [7]: 6 % of Cmp 1a and 4.58 % of Cmp 1a and 1.86 % of Cmp 1a and 3 % of Cmp 1a and 16 % of Cmp 1a and 1.22 % of Cmp 1a and 0.482 % of Cmp 1a and 2.32 % of Cmp 1a
IP1 response (% of Cmp 1a) [8]: 1.17 % of Cmp 1a and 1.86 % of Cmp 1a and 0.194 % of Cmp 1a and 1 % of Cmp 1a and 1.43 % of Cmp 1a and -8 % of Cmp 1a and -2.66 % of Cmp 1a and -4 % of Cmp 1a
IP1 response (% of Cmp 1a) (log [compound] M -4.5, individual replicates): 98 % of Cmp 1a and 68 % of Cmp 1a and 86 % of Cmp 1a and 109 % of Cmp 1a
IP1 response (% of Cmp 1a) (log [compound] M -5.0, individual replicates): 133 % of Cmp 1a and 94 % of Cmp 1a and 86 % of Cmp 1a and 118 % of Cmp 1a
IP1 response (% of Cmp 1a) (log [compound] M -5.5, individual replicates): 120 % of Cmp 1a and 61 % of Cmp 1a and 70 % of Cmp 1a and 104 % of Cmp 1a
IP1 response (% of Cmp 1a) (log [compound] M -6.0, individual replicates): 85 % of Cmp 1a and 49 % of Cmp 1a and 68 % of Cmp 1a and 66 % of Cmp 1a
IP1 response (% of Cmp 1a) (log [compound] M -6.5, individual replicates): 50 % of Cmp 1a and 44 % of Cmp 1a and 31 % of Cmp 1a and 21 % of Cmp 1a
IP1 response (% of Cmp 1a) (log [compound] M -7.0, individual replicates): 21 % of Cmp 1a and 9 % of Cmp 1a and 3.75 % of Cmp 1a and 17 % of Cmp 1a
IP1 response (% of Cmp 1a) (log [compound] M -7.5, individual replicates): 16 % of Cmp 1a and 1.22 % of Cmp 1a and 0.482 % of Cmp 1a and 2.32 % of Cmp 1a
IP1 response (% of Cmp 1a) (log [compound] M -8.0, individual replicates): 1.43 % of Cmp 1a and -8 % of Cmp 1a and -2.66 % of Cmp 1a and -4 % of Cmp 1a
Emax (read-out: Emax (%) IP1): 101 ± 12%
